What all share (assay type): ADME
Common to all, as to conditions: 0.5 h

One data set deals with T1, Cytochrome P450 2C8 (Homo sapiens, UniProt P10632).
T1 sequence (P10632 whole entry): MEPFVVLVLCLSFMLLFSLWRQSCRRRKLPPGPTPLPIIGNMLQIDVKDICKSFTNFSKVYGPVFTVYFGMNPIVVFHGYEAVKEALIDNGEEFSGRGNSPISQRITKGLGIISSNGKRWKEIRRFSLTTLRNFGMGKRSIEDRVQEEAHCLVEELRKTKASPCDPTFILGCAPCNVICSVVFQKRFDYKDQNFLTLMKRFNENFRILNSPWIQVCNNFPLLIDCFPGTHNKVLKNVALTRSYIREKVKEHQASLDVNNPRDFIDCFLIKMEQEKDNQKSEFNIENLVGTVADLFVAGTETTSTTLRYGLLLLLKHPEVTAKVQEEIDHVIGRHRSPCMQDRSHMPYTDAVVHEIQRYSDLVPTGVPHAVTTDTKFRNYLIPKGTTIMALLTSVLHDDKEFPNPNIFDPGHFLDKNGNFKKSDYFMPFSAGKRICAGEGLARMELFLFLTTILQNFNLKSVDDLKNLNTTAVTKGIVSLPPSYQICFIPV
Description: Drug metabolism in supersomes expressing human recombinant CYP2C8 assessed as enzyme-mediated cyanide adduct formation at 100 uM after 30 mins measured per nmol of P450 by HPLC analysis in presence of KCN.

Another data set deals with Cytochrome P450 2C19 (Homo sapiens, UniProt P33261). Description: Drug metabolism in supersomes expressing human recombinant CYP2C19 assessed as enzyme-mediated cyanide adduct formation at 100 uM after 30 mins measured per nmol of P450 by HPLC analysis in presence of KCN.
The target of data set [1] is T2, Cytochrome P450 2D6 (Homo sapiens, UniProt P10635). Description: Drug metabolism in supersomes expressing human recombinant CYP2D6 assessed as enzyme-mediated N-desmethylclozapine metabolite formation at 100 uM after 30 mins measured per nmol of P450 by HPLC analysis.
The target of data set [2] is T3, Cytochrome P450 1A1 (Homo sapiens, UniProt P04798).
T3 sequence (P04798 whole entry): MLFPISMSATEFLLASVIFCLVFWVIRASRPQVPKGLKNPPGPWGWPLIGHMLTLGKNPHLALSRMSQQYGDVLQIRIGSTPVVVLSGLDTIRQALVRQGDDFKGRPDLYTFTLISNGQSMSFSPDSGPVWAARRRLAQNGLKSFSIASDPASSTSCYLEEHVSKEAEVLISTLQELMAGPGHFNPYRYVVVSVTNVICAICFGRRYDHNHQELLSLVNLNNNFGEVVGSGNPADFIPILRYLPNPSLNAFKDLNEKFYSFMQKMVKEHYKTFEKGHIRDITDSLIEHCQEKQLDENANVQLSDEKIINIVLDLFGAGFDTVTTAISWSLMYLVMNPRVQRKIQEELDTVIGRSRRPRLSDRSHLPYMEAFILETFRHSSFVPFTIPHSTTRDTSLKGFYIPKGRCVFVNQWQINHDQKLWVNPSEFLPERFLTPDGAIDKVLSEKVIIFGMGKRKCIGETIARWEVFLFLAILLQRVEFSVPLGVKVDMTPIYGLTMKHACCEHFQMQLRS
Briefly: Drug metabolism in supersomes expressing human recombinant CYP1A1 assessed as enzyme-mediated clozapine-N-oxide metabolite formation at 100 uM after 30 mins measured per nmol of P450 by HPLC analysis.

Data set [3] addresses T2, Cytochrome P450 2D6. Description: Drug metabolism in supersomes expressing human recombinant CYP2D6 assessed as enzyme-mediated clozapine-N-oxide metabolite formation at 10 uM after 30 mins measured per nmol of P450 by HPLC analysis.
The target of the next data set is T4, Cytochrome P450 1A2 (Homo sapiens, UniProt P05177).
T4 sequence (P05177 whole entry): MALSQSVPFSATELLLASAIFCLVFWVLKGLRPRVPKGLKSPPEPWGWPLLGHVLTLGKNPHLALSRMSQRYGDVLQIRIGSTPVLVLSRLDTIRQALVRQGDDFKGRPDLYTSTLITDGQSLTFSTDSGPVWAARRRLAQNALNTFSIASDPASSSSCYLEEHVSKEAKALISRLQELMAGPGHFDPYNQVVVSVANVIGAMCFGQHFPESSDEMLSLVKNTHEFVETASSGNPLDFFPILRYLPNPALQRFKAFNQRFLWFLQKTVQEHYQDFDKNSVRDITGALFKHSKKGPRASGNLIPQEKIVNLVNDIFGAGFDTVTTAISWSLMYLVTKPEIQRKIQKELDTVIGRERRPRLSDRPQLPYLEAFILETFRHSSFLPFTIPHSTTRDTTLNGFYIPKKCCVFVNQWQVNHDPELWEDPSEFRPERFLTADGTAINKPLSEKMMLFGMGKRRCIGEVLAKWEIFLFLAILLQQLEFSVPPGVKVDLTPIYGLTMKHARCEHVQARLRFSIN
Description: Drug metabolism in supersomes expressing human recombinant CYP1A2 assessed as enzyme-mediated total GSH conjugate formation at 100 uM after 30 mins measured per nmol of P450 by HPLC analysis in presence of GSH and hGST P1-1.

The next data set addresses T5, Cytochrome P450 2A6 (Homo sapiens, UniProt P11509).
T5 sequence (P11509 whole entry): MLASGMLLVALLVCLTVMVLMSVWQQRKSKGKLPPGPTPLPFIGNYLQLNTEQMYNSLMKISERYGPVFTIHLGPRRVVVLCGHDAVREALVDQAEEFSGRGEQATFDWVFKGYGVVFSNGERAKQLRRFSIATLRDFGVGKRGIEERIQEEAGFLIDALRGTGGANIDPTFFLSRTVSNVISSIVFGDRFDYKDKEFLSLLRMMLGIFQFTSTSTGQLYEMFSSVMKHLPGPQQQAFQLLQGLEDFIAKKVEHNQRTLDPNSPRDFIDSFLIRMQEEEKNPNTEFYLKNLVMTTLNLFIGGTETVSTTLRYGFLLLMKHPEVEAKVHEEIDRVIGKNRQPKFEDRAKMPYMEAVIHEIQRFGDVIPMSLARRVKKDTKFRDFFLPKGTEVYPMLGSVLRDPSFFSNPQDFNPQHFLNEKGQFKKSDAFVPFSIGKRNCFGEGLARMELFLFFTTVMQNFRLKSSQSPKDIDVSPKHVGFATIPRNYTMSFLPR
Briefly: Drug metabolism in supersomes expressing human recombinant CYP2A6 assessed as enzyme-mediated cyanide adduct formation at 100 uM after 30 mins measured per nmol of P450 by HPLC analysis in presence of KCN.

Data set [4] deals with T3, Cytochrome P450 1A1. Briefly: Drug metabolism in supersomes expressing human recombinant CYP1A1 assessed as enzyme-mediated cyanide adduct formation at 100 uM after 30 mins measured per nmol of P450 by HPLC analysis in presence of KCN.
The target of data set [5] is T3, Cytochrome P450 1A1. Briefly: Drug metabolism in supersomes expressing human recombinant CYP1A1 assessed as enzyme-mediated N-desmethylclozapine metabolite formation at 10 uM after 30 mins measured per nmol of P450 by HPLC analysis.
The next data set concerns the target Cytochrome P450 2C9 (Homo sapiens, UniProt P11712). Briefly: Drug metabolism in supersomes expressing human recombinant CYP2C9 assessed as enzyme-mediated N-desmethylclozapine metabolite formation at 10 uM after 30 mins measured per nmol of P450 by HPLC analysis.

T2 sequence (P10635 whole entry): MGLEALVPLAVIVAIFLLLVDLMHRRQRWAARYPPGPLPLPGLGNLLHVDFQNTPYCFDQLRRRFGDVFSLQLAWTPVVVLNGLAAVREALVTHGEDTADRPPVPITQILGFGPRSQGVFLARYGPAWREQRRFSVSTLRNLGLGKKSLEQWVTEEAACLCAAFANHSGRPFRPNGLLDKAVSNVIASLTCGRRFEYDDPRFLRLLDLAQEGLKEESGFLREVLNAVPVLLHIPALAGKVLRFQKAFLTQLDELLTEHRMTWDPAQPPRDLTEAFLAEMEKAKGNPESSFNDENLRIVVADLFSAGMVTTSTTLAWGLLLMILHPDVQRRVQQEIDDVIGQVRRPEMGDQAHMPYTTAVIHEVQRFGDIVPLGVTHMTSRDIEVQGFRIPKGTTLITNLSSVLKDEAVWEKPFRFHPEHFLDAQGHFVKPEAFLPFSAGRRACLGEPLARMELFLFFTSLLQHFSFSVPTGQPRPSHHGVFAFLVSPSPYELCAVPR
Cytochrome P450 2C19, sequence (P33261 whole entry): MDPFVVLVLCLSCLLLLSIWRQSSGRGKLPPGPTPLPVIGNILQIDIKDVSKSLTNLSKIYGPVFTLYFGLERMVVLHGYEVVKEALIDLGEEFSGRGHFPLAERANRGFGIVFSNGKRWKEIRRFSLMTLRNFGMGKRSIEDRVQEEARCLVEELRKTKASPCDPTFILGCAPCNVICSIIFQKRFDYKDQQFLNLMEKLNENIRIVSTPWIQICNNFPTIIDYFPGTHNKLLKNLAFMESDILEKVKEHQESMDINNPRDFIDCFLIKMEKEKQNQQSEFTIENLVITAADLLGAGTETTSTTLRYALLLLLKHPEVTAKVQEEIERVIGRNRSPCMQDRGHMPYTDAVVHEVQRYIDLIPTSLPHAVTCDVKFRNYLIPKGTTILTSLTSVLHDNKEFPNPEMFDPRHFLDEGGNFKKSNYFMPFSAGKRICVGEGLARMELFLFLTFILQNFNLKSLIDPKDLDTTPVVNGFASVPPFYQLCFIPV
Cytochrome P450 2C9, sequence (P11712 whole entry): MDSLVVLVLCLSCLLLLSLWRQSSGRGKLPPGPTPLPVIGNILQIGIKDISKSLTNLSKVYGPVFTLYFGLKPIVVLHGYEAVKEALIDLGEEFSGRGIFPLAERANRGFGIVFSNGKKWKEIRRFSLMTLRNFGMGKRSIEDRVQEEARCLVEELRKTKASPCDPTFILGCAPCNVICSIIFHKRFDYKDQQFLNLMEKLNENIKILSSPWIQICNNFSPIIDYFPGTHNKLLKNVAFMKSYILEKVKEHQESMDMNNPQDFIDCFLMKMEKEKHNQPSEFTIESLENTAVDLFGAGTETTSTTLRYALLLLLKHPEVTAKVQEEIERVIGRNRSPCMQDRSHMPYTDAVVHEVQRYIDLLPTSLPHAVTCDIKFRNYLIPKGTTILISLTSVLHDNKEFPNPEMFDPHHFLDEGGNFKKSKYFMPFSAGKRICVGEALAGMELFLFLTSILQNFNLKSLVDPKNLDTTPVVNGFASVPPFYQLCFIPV

`CN1CCN(C2=Nc3cc(Cl)ccc3Nc3ccccc32)CC1` [CLOZAPINE]: the Drug metabolism at Cytochrome P450 2C8 is given as 0.058 nmol/min; on Cytochrome P450 2C19, 0.03 nmol/min; on Cytochrome P450 2D6 [1] it was 23.7 nmol/min; at Cytochrome P450 1A1 [2] it was 0.2 nmol/min; at Cytochrome P450 2D6 [3] it was 0.51 nmol/min; on Cytochrome P450 1A2, 0.25 nmol/min. Also, the Drug metabolism at Cytochrome P450 2A6 is reported as 0.17 nmol/min; on Cytochrome P450 1A1 [4], 0.024 nmol/min; at Cytochrome P450 1A1 [5], 0.64 nmol/min; at Cytochrome P450 2C9, 0.33 nmol/min.

The values above are taken from ChEMBL document CHEMBL3525934 (Drug Metab Dispos, 2013).
